Assay results as given in patent US20260176289A1, “SMALL MOLECULE INHIBITORS OF KRAS PROTEINS” (Merck Sharp & Dohme LLC, priority 2022, published 2026).
Where two headings read alike, the source gives them in different places.

What was measured:
AsPC-1 cells = assay: Cellular phospho-ERK assay, AsPC-1 cells (homozygous KRAS-G12D); assay type: cell-based; details: Homo sapiens, ASPC1, 2 h, read-out: AsPC1 pERK IC50
In short: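 Cells were seeded overnight, then treated 2 h at 37° C with compound in a 10-point, 1:3 titration from 30 μM top final concentration. Lysates were assayed by AlphaLISA SureFire Ultra for p-ERK and total ERK. IC50 came from a 4-parameter logistic fit of the p-ERK/total ERK ratio.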

KRAS-G12D = KRAS-G12D (Homo sapiens, UniProt P01116, G12D); assay: SOS-catalyzed nucleotide exchange assay (Procedure A, TR-FRET), KRAS-G12D; assay type: biochemical; details: nucleotide exchange, read-out: KRAS G12D GNE IC50
In short: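 Signal ratio (520/495 nm, excitation 340 nm) reports Bodipy-GDP retention on biotinylated RAS after SOS-catalyzed exchange with 3 mM GTP. SOS was 40 nM, except 160 nM for G12V. Room-temperature exchange lasted 60 min (90 min for G12V), following a 60 min compound preincubation.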

KRAS-WT = KRAS-WT (Homo sapiens, UniProt P01116); assay: SOS-catalyzed nucleotide exchange assay (Procedure A, TR-FRET), KRAS-WT; assay type: biochemical; details: nucleotide exchange, read-out: KRAS WT GNE IC50
In short: (§1)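 TR-FRET 520/495 nm ratio read after SOS-driven exchange of Bodipy-GDP for unlabeled GTP (3 mM) on biotinylated RAS bound to Tb-streptavidin. There was a 60 min compound preincubation, RT. Final RAS/SOS and reaction times: G12C 3 nM/40 nM; WT 1 nM/40 nM; NRAS 1.25 nM/40 nM, each 60 min. G12V was 1.25 nM/160 nM, 90 min.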

KRAS-G12V = KRAS-G12V (Homo sapiens, UniProt P01116, G12V); assay: SOS-catalyzed nucleotide exchange assay (Procedure A, TR-FRET), KRAS-G12V; assay type: biochemical; details: nucleotide exchange, read-out: KRAS G12V GNE IC50
In short: as §1

Sequence of KRAS-WT (P01116 with tags, fused parts or gaps isoform P01116-2): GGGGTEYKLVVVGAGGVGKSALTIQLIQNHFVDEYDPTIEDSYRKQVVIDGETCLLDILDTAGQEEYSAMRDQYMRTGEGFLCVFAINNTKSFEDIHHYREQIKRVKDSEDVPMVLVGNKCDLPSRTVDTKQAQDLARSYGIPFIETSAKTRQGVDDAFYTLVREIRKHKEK
Sequence of KRAS-G12V (P01116 with tags, fused parts or gaps isoform P01116-2 G12V): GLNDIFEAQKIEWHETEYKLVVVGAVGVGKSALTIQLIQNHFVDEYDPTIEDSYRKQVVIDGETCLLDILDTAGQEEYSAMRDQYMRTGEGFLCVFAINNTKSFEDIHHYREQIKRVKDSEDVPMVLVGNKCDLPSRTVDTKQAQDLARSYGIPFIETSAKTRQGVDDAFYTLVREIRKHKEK
Sequence of KRAS-G12D (P01116 with tags, fused parts or gaps isoform P01116-2 G12D): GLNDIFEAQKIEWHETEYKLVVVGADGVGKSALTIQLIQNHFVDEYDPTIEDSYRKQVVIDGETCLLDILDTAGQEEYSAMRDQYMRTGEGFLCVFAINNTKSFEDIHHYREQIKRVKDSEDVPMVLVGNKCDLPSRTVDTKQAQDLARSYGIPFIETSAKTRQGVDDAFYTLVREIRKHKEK

C[C@@H]1CN(C[C@@]2(COc3nc(N4CCOC[C@@](C)(O)C4)c4c(n3)sc3c(-c5c(C6(F)CC6)c(Cl)cc6[nH]ncc56)nccc34)CC2(F)F)CCO1 [Ex-243] showed an IC50 (AsPC-1 cells; 2 hours compound incubation) of 943 nM, an IC50 (KRAS-G12D) of 87.3 nM and an IC50 (KRAS-WT) of 986 nM. The IC50 (KRAS-G12V) was 333 nM.
C[C@@]1(O)COCCN(c2nc(OC[C@@]34CCCN3C[C@H](F)C4)nc3sc4c(-c5c6c(cc7[nH]ncc57)C5CC5C6)nccc4c23)C1 (stereo partly drawn) [Ex-91, (6S)-4-(2-(((2R,7aS)-2-fluorotetrahydro-1H-pyrrolizin-7a(5H)-yl)methoxy)-8-(5,5a,6,6a-tetrahydro-1H-cyclopropa[3,4]cyclopen-ta[1,2-f]indazol-4-yl)pyrido[4′,3′:4,5]thieno [2,3-d]pyrimidin-4-yl)-6-methyl-1,4-oxazepan-6-ol] was tested, and the IC50 (AsPC-1 cells; KRAS-G12D, 2 hours) was 399 nM, the IC50 (KRAS-G12D) was 65 nM and the IC50 (KRAS-WT) was 129 nM. It also gave an IC50 (KRAS-G12V) of 103 nM.
For CC1CCc2cccc(-c3nccc4c3sc3nc(OC[C@@]56CCCN5C[C@H](F)C6)nc(N5CCOC[C@@](C)(O)C5)c34)c21 (single isomer, unassigned) [Ex-117], the IC50 (AsPC-1 cells; KRAS-G12D, 2 hours) was 720 nM, the IC50 (KRAS-G12D) was 73.6 nM and the IC50 (KRAS-WT) was 218 nM. The IC50 (KRAS-G12V) was 96.1 nM.
Cc1cc2[nH]ncc2c(-c2nccn3c2c(Cl)c2nc(OC[C@@]45CCCN4C[C@H](F)C5)nc(N4CCOC[C@@](C)(O)C4)c23)c1C(F)(F)F [Ex-299, (S)-4-(10-chloro-2-(((2R,7aS)-2-fluorotetrahydro-1H-pyrrolizin-7a(5H)-yl)methoxy)-9-(6-methyl-5-(trifluoromethyl)-1H-indazol-4-yl)pyrazino[1′,2′:1,5]pyrrolo[3,2-d]pyrimidin-4-yl)-6-methyl-1,4-oxazepan-6-ol] showed an IC50 (AsPC-1 cells; KRAS-G12D, 2 hours) of 1450 nM, an IC50 (KRAS-G12D) of 115 nM and an IC50 (KRAS-WT) of 293 nM. For the same molecule, the IC50 (KRAS-G12V) was 93.1 nM.
Work on Cc1cc2[nH]ncc2c(-c2nccc3c2sc2nc(OC[C@@]45CCCN4C[C@H](F)C5)nc(N4CCC[C@@]5(CNC(=O)O5)C4)c23)c1C(F)(F)F [Ex-196, (5R)-7-(2-(((2R,7aS)-2-fluorotetrahydro-1H-pyr-rolizin-7a(5)-yl)methoxy)-8-(6-methyl-5-(trifluoro-methyl)-1H-indazol-4-yl)-pyrido[4′,3′:4,5]thieno[2,3-d]pyrimidin-4-yl)-1-oxa-3,7-diazaspiro[4.5]decan-2-one] yielded an IC50 (AsPC-1 cells; 2 hours compound incubation) of 1870 nM, an IC50 (KRAS-G12D) of 8.06 nM and an IC50 (KRAS-WT) of 35.8 nM. It also gave an IC50 (KRAS-G12V) of 19.4 nM.
With C[C@@]1(O)COCCN(c2nc(OC[C@]3(CN4C[C@H]5CCO[C@H]5C4)CC3(F)F)nc3sc4c(-c5c(C6(F)CC6)c(Cl)cc6[nH]ncc56)nccc4c23)C1 [Ex-254, (6S)-4-(8-(6-chloro-5-(1-fluorocyclopropyl)-1H-indazol-4-yl)-2-(((R)-2,2-difluoro-1-(((3aR,6aR)-hexahydro-5H-furo[2,3-c]pyrrol-5-yl)methyl)cyclopropyl)metho-xy)pyrido[4′,3′:4,5]thieno[2,3-d]pyrimidin-4-yl)-6-methyl-1,4-oxazepan-6-ol] the IC50 (AsPC-1 cells; 2 hours compound incubation) was 315 nM, the IC50 (KRAS-G12D) was 6.96 nM and the IC50 (KRAS-WT) was 59.7 nM. For the same molecule, the IC50 (KRAS-G12V) was 91.9 nM.
Cc1cccc(-c2nccc3c2sc2nc(OC[C@@]45CCCN4C[C@H](F)C5)nc(N4CCOC[C@@](C)(O)C4)c23)c1C [Ex-120, (S)-4-(8-(2,3-dimethylpheny1)-2-(((2R,7aS)-2-fluorotetrahydro-1H-pyrrolizin-7a(5H)-yl)methoxy)pyrido[4′,3′:4,5]thi-eno[2,3-d]pyrimidin-4-yl)-6-methyl-1,4-oxazepan-6-ol] showed an IC50 (AsPC-1 cells; KRAS-G12D, 2 hours) of 2030 nM, an IC50 (KRAS-G12D) of 403 nM and an IC50 (KRAS-WT) of 1080 nM. The IC50 (KRAS-G12V) was 269 nM.
For C[C@@]1(O)COCCN(c2nc(OC[C@]3(CN4C[C@H]5COC[C@H]5C4)CC3(F)F)nc3sc4c(-c5c(C6(F)CC6)c(Cl)cc6[nH]ncc56)nccc4c23)C1 [Ex-235, (6S)-4-(8-(6-chloro-5-(1-fluorocyclopropyl)-1H-indazol-4-yl)-2-(((R)-2,2-difluoro-1-(((3aR,6aS)-tetrahydro-1H-furo[3,4-c]pyrrol-5(3H)-yl)methyl)cyclopropyl)metho-xy)pyrido[4′,3′:4,5]thieno[2,3-d]pyrimidin-4-yl)-6-methyl-1,4-oxazepan-6-ol], the IC50 (AsPC-1 cells; 2 hours compound incubation) was 206 nM, the IC50 (KRAS-G12D) was 3.86 nM and the IC50 (KRAS-WT) was 31.6 nM. For the same molecule, the IC50 (KRAS-G12V) was 19.4 nM.
Cc1cc2[nH]ncc2c(-c2nccn3c2c(Cl)c2nc(OC[C@@]45CCCN4C[C@H](F)C5)nc(N4CCOC[C@@](C)(O)C4)c23)c1C1CC1 (single isomer, unassigned) [Ex-297] gave an IC50 (AsPC-1 cells; KRAS-G12D, 2 hours) of 636 nM, an IC50 (KRAS-G12D) of 23.1 nM and an IC50 (KRAS-WT) of 67.8 nM. For the same molecule, the IC50 (KRAS-G12V) was 57.6 nM.
Cc1cc2[nH]ncc2c(-c2nccc3c2sc2nc(OC[C@@]45CCCN4C[C@H](F)C5)nc(NCC4COC4)c23)c1C(F)(F)F [Ex-186, 2-(((2R,7aS)-2-fluorotetra-hydro-1H-pyrrolizin-7a(5H)-yl)methoxy)-8-(6-methyl-5-(trifluorometh-yl)-1H-indazol-4-yl)-N-(oxetan-3-ylmethyl)pyrido [4′,3′:4,5]thieno[2,3-d] pyrimidin-4-amine] was tested, and the IC50 (AsPC-1 cells; 2 hours compound incubation) was 2490 nM, the IC50 (KRAS-G12D) was 409 nM and the IC50 (KRAS-WT) was 980 nM. The IC50 (KRAS-G12V) was 436 nM.
C[C@@H]1CC[C@@H](COc2nc(N3CCOC[C@@](C)(O)C3)c3c(n2)sc2c(-c4c(C5CC5)c(C(F)(F)F)cc5[nH]ncc45)nccc23)N1C [Ex-86, (6S)-4-(8-(5-cyclopropyl-6-(trifluoromethyl)-1H-indazol-4-yl)-2-(((2S,5R)-1,5-dimethylpyrrolidin-2-yl)methoxy)pyrido[4′,3′:4,5]thi-eno[2,3-d]pyrimidin-4-yl)-6-methyl-1,4-oxazepan-6-ol] was tested, and the IC50 (AsPC-1 cells; KRAS-G12D, 2 hours) was 361 nM, the IC50 (KRAS-G12D) was 14.6 nM and the IC50 (KRAS-WT) was 33.8 nM. For the same molecule, the IC50 (KRAS-G12V) was 21.2 nM.
For CN(C)C[C@@]1(COc2nc(N3CCOC[C@@](C)(O)C3)c3c(n2)sc2c(-c4c(C5CC5)c(Cl)cc5[nH]ncc45)nncc23)CC1(F)F [Ex-287, (6S)-4-(8-(6-chloro-5-cyclopropyl-1H-indazol-4-yl)-2-(((R)-1-((dimethylamino)methyl)-2,2-difluorocyclopropyl)meth-oxy)pyrimido[5′,4′:4,5]thi-eno[2,3-d]pyridazin-4-yl)-6-methyl-1,4-oxazepan-6-ol], the IC50 (AsPC-1 cells; KRAS-G12D, 2 hours) was 41.5 nM, the IC50 (KRAS-G12D) was 5.28 nM and the IC50 (KRAS-WT) was 10.2 nM. The IC50 (KRAS-G12V) was 15.9 nM.
Molecule CCC1=CC(F)(F)c2cc3[nH]ncc3c(-c3nccc4c3sc3nc(OC[C@@]56CCCN5C[C@H](F)C6)nc(N5CCOC[C@@](C)(O)C5)c34)c21 [Ex-114, (6S)-4-(8-(5-ethyl-7,7-difluoro-1,7-dihydrocyclopenta[f]inda-zol-4-yl)-2-(((2R,7aS)-2-fluorotetrahydro-1H-pyrrolizin-7a(5H)-yl)methoxy)pyrido[4′,3′:4,5]thi-eno[2,3-d]pyrimidin-4-yl)-6-methyl-1,4-oxazepan-6-ol] has an IC50 (AsPC-1 cells; KRAS-G12D, 2 hours) of 670 nM, an IC50 (KRAS-G12D) of 165 nM and an IC50 (KRAS-WT) of 380 nM. For the same molecule, the IC50 (KRAS-G12V) was 278 nM.
In the case of C=C1CN2C[C@@H](OC)C[C@@]2(COc2nc(N3CCOC[C@@](C)(O)C3)c3c(n2)sc2c(-c4c(C5CC5)c(Cl)cc5[nH]ncc45)nccc23)C1 [Ex-227, (6S)-4-(8-(6-chloro-5-cyclopropyl-1H-indazol-4-yl)-2-(((25,7aR)-2-meth-oxy-6-methylene-tetrahydro-1H-pyrrolizin-7a(5H)-yl)methoxy)pyrido [4′,3′:4,5]thieno[2,3-d]pyrimidin-4-yl)-6-methyl-1,4-oxaze-pan-6-ol], the IC50 (AsPC-1 cells; 2 hours compound incubation) is reported as 175 nM, the IC50 (KRAS-G12D) is reported as 6.56 nM and the IC50 (KRAS-WT) is reported as 18.5 nM. For the same molecule, the IC50 (KRAS-G12V) was 21.9 nM.
